SMILES strings stand for the structures.

A short description of this data set: Log P by HPLC on reversed phase, method [a], acidic range (0.1% formic acid). Format: physicochemical. To be noted: LC-UV, 0.1% formic acid in water and acetonitrile.
In the case of `O=C(Nc1cnn(-c2ccccc2Cl)c1-c1ccc(Cl)cc1)c1cccnc1C(F)F` [Example 80], the LogP was 2.90^[a]. Next, `O=C(Nc1cnn(-c2ccccc2F)c1-c1cccc(Cl)c1)c1cccnc1C(F)F` [Example 57]: 2.75^[a].

Consider `Cc1ccccc1-n1ncc(NC(=O)c2cccnc2C(F)F)c1C` [Example 115], for which the LogP is 1.93^[a]. Under `O=C(Nc1cnn(-c2ccccc2Cl)c1-c1ccccc1)c1cccnc1C(F)F` [Example 79] stands 2.53^[a]. Next, `CCOc1c(NC(=O)c2cccnc2C(F)F)cnn1-c1ccc(Cl)cc1` [Example 225]: 2.62^[a]; `Cc1c(NC(=O)c2ccc(Cl)nc2C(F)F)cnn1-c1cccc(Cl)c1` [Example 66]: 2.88^[a]; `CC(C)CCn1ncc(NC(=O)c2cccnc2C(F)F)c1C(C)C` [Example 125]: 2.53^[a]. As to `CC(C)n1ncc(NC(=O)c2cccnc2C(F)F)c1C1CC1` [Example 14], the LogP was 1.68^[a]. Under `Cc1cnc(C(F)F)c(C(=O)Nc2cnn(-c3ccccc3Cl)c2C(C)C)c1` [Example 209] stands 2.59^[a]; under `CCc1c(NC(=O)c2cc(C)cnc2C(F)F)cnn1-c1ccc(C(F)(F)F)cc1` [Example 240], 3.00^[a]; under `Cc1c(NC(=O)c2ccc(Cl)nc2C(F)F)cnn1-c1ccc(Cl)cc1` [Example 72], 2.86^[a]. Next, `CCc1c(NC(=O)c2cc(C)cnc2C(F)F)cnn1-c1cccc(Cl)c1` [Example 213]: 2.71^[a]; `O=C(Nc1cnn(-c2cccc(Cl)c2)c1C(F)F)c1cccnc1C(F)F` [Example 24]: 2.69^[a]. Next, `Cc1cnc(C(F)F)c(C(=O)Nc2cnn(-c3cc(Cl)cc(Cl)c3)c2C(F)(F)F)c1` [Example 174]: 3.89^[a]; `O=C(Nc1cnn(-c2ccccc2)c1Br)c1cccnc1C(F)F` [Example 135]: 2.07^[a].

Take `O=C(Nc1cnn(-c2ccccc2)c1C(F)(F)F)c1cccnc1C(F)F` [Example 9]: the LogP was 2.53^[a]. Next, `O=C(Nc1cnn(-c2ccccc2F)c1C(F)(F)F)c1cccnc1C(F)F` [Example 88]: 2.55^[a]; `O=C(Nc1cnn(-c2cccc(Cl)c2Cl)c1C(F)(F)F)c1ccc(Br)nc1C(F)F` [Example 144]: 3.80^[a]. Next, `O=C(Nc1cnn(-c2ccc(F)cc2)c1C(F)F)c1cccnc1C(F)F` [Example 32]: 2.20^[a]; `O=C(Nc1cnn(Cc2ccccc2)c1C(F)(F)F)c1cccnc1C(F)F` [Example 97]: 2.71^[a]; `O=C(Nc1cnn(-c2cc(F)c(F)c(F)c2)c1Cl)c1cccnc1C(F)F` [Example 253]: 2.66^[a]. Regarding `Cc1cnc(C(F)F)c(C(=O)Nc2cnn(-c3ccc(Cl)cc3)c2C(C)C)c1` [Example 211], the LogP is 2.86^[a].

Turning to `O=C(Nc1cnn(-c2ccc(Br)cc2)c1OCC(F)F)c1cccnc1C(F)F` [Example 235], the LogP was 2.68^[a]. As to `COc1cnc(C(F)F)c(C(=O)Nc2cnn(-c3cccc(Cl)c3Cl)c2C(F)(F)F)c1` [Example 165], the LogP is 3.37^[a]. With `Cc1cnc(C(F)F)c(C(=O)Nc2cnn(-c3cc(Cl)ccc3Cl)c2C(F)(F)F)c1` [Example 175], the LogP is 3.39^[a]. Under `Cc1c(NC(=O)c2cccnc2C(F)F)cnn1C1CCCC1` [Example 11] stands 1.83^[a]; under `O=C(Nc1cnn(-c2ccc(Br)cc2)c1Br)c1cccnc1C(F)F` [Example 150], 2.67^[a]; under `O=C(Nc1cnn(-c2ccccc2)c1Cl)c1cccnc1C(F)F` [Example 137], 2.07^[a]. Under `Cc1ccc(Oc2ccc(-n3ncc(NC(=O)c4cccnc4C(F)F)c3C(F)(F)F)cc2)cc1` [Example 245] stands 4.03^[a]; under `Cc1ccccc1-n1ncc(NC(=O)c2cccnc2C(F)F)c1C(C)C` [Example 106], 2.37^[a]; under `O=C(Nc1cnn(-c2ccc(F)cc2)c1Br)c1cccnc1C(F)F` [Example 192], 2.17^[a]. Under `CCc1c(NC(=O)c2cc(C)cnc2C(F)F)cnn1-c1ccccc1Cl` [Example 212] stands 2.41^[a]; under `Cc1c(NC(=O)c2ccc(Cl)nc2C(F)F)cnn1C(C)(C)C` [Example 37], 2.25^[a]; under `COc1c(NC(=O)c2cccnc2C(F)F)cnn1-c1ccccc1Cl` [Example 215], 1.85^[a].

As for `Cc1cnc(C(F)F)c(C(=O)Nc2cnn(C(C)C)c2C2CC2)c1` [Example 42], the LogP was 1.95^[a]. Next, `Cc1cnc(C(F)F)c(C(=O)Nc2cnn(-c3ccccc3)c2C(F)(F)F)c1` [Example 4]: 2.44^[a]; `O=C(Nc1cnn(-c2cccc(Cl)c2)c1C(F)(F)F)c1cccnc1C(F)F` [Example 84]: 3.00^[a]; `O=C(Nc1cnn(-c2cc(Cl)cc(Cl)c2)c1C(F)(F)F)c1ccc(Cl)nc1C(F)F` [Example 161]: 4.23^[a]. On to `O=C(Nc1cnn(-c2cccc(F)c2)c1C(F)F)c1cccnc1C(F)F` [Example 25], for which the LogP is 2.37^[a]. On to `O=C(Nc1cnn(-c2ccc(Cl)cc2)c1Br)c1cccnc1C(F)F` [Example 220], for which the LogP was 2.50^[a]. Take `O=C(Nc1cnn(-c2ccc(Cl)cc2)c1-c1ccccc1)c1cccnc1C(F)F` [Example 198]: the LogP is 2.99^[a]. Under `O=C(Nc1cnn(-c2ccccc2F)c1C(F)F)c1cccnc1C(F)F` [Example 33] stands 2.32^[a]; under `O=C(Nc1cnn(-c2ccccc2Cl)c1-c1cccc(Cl)c1)c1cccnc1C(F)F` [Example 81], 2.88^[a]; under `O=C(Nc1cnn(-c2ccc(Br)cc2)c1-c1ccc(Cl)cc1)c1cccnc1C(F)F` [Example 200], 3.46^[a]. Next, `O=C(Nc1cnn(-c2ccccc2C(F)(F)F)c1-c1cccc(F)c1)c1cccnc1C(F)F` [Example 131]: 2.80^[a]. Next, `CCC(CC)n1ncc(NC(=O)c2cccnc2C(F)F)c1C` [Example 8]: 1.89^[a]; `O=C(Nc1cnn(-c2ccc(Cl)c(Cl)c2)c1C(F)(F)F)c1ccc(Cl)nc1C(F)F` [Example 180]: 4.11^[a].

Turning to `O=C(Nc1cnn(-c2ccc(Cl)cc2)c1Cl)c1cccnc1C(F)F` [Example 183], the LogP is 2.55^[a]. Turning to `N#Cc1c(NC(=O)c2ccc(Cl)nc2C(F)F)cnn1-c1ccccc1` [Example 164], the LogP is 2.90^[a].

On to `O=C(Nc1cnn(-c2ccccc2F)c1-c1ccccc1)c1cccnc1C(F)F` [Example 148], for which the LogP was 2.39^[a]. Under `O=C(Nc1cnn(-c2cc(F)cc(F)c2)c1C(F)(F)F)c1cccnc1C(F)F` [Example 61] stands 2.88^[a]; under `Cc1ccc(-n2ncc(NC(=O)c3cc(C)cnc3C(F)F)c2C(F)(F)F)cc1` [Example 101], 3.13^[a]. Next, `CCc1c(NC(=O)c2cc(C)cnc2C(F)F)cnn1-c1cccc(C(F)(F)F)c1` [Example 239]: 2.94^[a]. Under `CCOc1ccc(-n2ncc(NC(=O)c3cccnc3C(F)F)c2C(F)(F)F)cc1` [Example 230] stands 2.88^[a]; under `CCC(C)n1ncc(NC(=O)c2cccnc2C(F)F)c1C` (stereo not drawn) [Example 126], 1.63^[a]; under `O=C(Nc1cnn(-c2ccc(C(F)(F)F)cc2)c1-c1ccccc1)c1cccnc1C(F)F` [Example 186], 3.24^[a]. For the molecule `O=C(Nc1cnn(-c2ccc(Cl)cc2)c1-c1ccc(F)cc1)c1cccnc1C(F)F` [Example 187], the LogP was 3.10^[a]. Consider `O=C(Nc1cnn(-c2cc(Cl)cc(Cl)c2)c1Cl)c1cccnc1C(F)F` [Example 202], for which the LogP is 3.19^[a]. Next, `Cc1cnc(C(F)F)c(C(=O)Nc2cnn(-c3cccc(Cl)c3)c2C(C)C)c1` [Example 210]: 2.84^[a]; `O=C(Nc1cnn(-c2ccc(Br)cc2)c1Cl)c1cccnc1C(F)F` [Example 151]: 3.47^[a]. Next, `O=C(Nc1cnn(-c2ccccc2Br)c1C(F)(F)F)c1cccnc1C(F)F` [Example 74]: 2.71^[a]. Under `O=C(Nc1cnn(-c2ccc(Cl)cc2)c1OCC(F)F)c1cccnc1C(F)F` [Example 222] stands 2.60^[a]; under `O=C(Nc1cnn(-c2cccc(C(F)(F)F)c2)c1-c1cccc(Cl)c1)c1cccnc1C(F)F` [Example 53], 3.48^[a]. As for `O=C(Nc1cnn(-c2cc(Cl)ccc2Cl)c1C(F)(F)F)c1cccnc1C(F)F` [Example 95], the LogP was 3.15^[a].

For `CCc1c(NC(=O)c2cccnc2C(F)F)cnn1-c1cccc(Cl)c1` [Example 107], the LogP is 2.48^[a]. Under `CCc1c(NC(=O)c2cc(C)cnc2C(F)F)cnn1-c1ccccc1C` [Example 204] stands 2.44^[a]. Take `Cc1c(NC(=O)c2cccnc2C(F)F)cnn1-c1ccc(C(F)(F)F)cc1` [Example 114]: the LogP was 2.53^[a].

Turning to `O=C(Nc1cnn(-c2ccccc2C(F)(F)F)c1-c1cccc(Cl)c1)c1cccnc1C(F)F` [Example 78], the LogP is 3.06^[a].

In the case of `Cc1cnc(C(F)F)c(C(=O)Nc2cnn(-c3ccccc3C)c2C(C)C)c1` [Example 205], the LogP was 2.60^[a]. In the case of `Cc1ccc(C)c(-n2ncc(NC(=O)c3cccnc3C(F)F)c2C)c1` [Example 13], the LogP was 2.25^[a].

For the molecule `O=C(Nc1cnn(-c2ccc(C(F)(F)F)cc2)c1Cl)c1cccnc1C(F)F` [Example 188], the LogP is 2.81^[a].

Turning to `Cc1c(NC(=O)c2ccc(Cl)nc2C(F)F)cnn1-c1ccccc1Cl` [Example 70], the LogP is 2.56^[a].

Regarding `COc1c(NC(=O)c2cccnc2C(F)F)cnn1-c1ccc(Cl)cc1` [Example 218], the LogP is 2.32^[a]. Under `COCc1c(NC(=O)c2cccnc2C(F)F)cnn1-c1ccc(Br)cc1` [Example 251] stands 2.58^[a]; under `O=C(Nc1cnn(-c2ccc(Cl)cc2Cl)c1C(F)(F)F)c1ccc(Cl)nc1C(F)F` [Example 162], 3.85^[a].

(Values after patent publication US10039283B2, “Substituted pyrazolyl-nicotin(thio)amide derivatives and their use as fungicides” (BAYER CROPSCIENCE AKTIENGESELLSCHAFT, priority 2014, dated 2018).)
